Experiments:
mdx mice = test: Glycemia monitoring, insulin sensitivity, glucose and pyruvate tolerance tests, adipocyte histology in mdx mice; assay type: in vivo, mouse
Experimental: Glucose was measured in blood (first drop from tail venipuncture) or serum (5 μl of 1:2 dilution) with an AimStrip Plus glucometer system (Germaine Laboratories, San Antonio, Tex.) and expressed as mg/dl values. Lactate was measured in blood (second drop from tail venipuncture) or serum (5 μl of 1:2 dilution) with a Lactate Plus reader (Nova Biomedical, Waltham, Mass.) and expressed as mM values. Fasting glycemia was measured in mice after 4 hours fasting (7 AM-11 AM). Glucose, insulin and pyruvate tolerance tests were conducted after 4 hours fasting in individual cages immediately after baseline fasting glucose monitoring. Mice were injected with either 1 g/kg glucose (#D8375-1 g; Millipore Sigma, St Louis, Mo.), or 0.5 U/kg insulin (#12585014; Thermo Fisher, Waltham, Mass.), or 2.5 g/kg pyruvate (#P5280-25 g; Millipore Sigma, St Louis, Mo.) in 200 μl intraperitoneal injections, and glucose was then monitored by tail venipuncture at 10 min, 20 min, 30 min, 60 min, 120 min after injection. All glucose and pyruvate tolerance tests were conducted blinded to treatment groups.
Histology. Excised tissues (muscles, omental fat, heart) were placed in 10% formaldehyde (Cat #245-684; Fisher Scientific, Waltham, Mass.) for histologic processing. Seven μm sections from the center of paraffin-embedded muscles were stained with hematoxylin and eosin (H&E; cat #12013B, 1070C; Newcomer Supply, Middleton, Wis.) and Masson's trichrome (Cat #HT-15; Sigma-Aldrich; St. Louis, Mo.). Myofiber/adipocyte CSA quantitation was conducted on 400 myofibers/adipocytes per tissue per mouse. Imaging was performed using a Zeiss Axio Observer A1 microscope, using 10× and 20× (short-range) objectives. Brightfield pictures were acquired via Gryphax software (version 1.0.6.598; Jenoptik, Jena, Germany). Area quantitation was performed by means of ImageJ (Schneider et al., 2012). Sample processing, imaging and CSA quantitation were conducted blinded to treatment groups.

[1] = tested on: Klf15, Mef2C, Foxo3 loci in mdx muscle; test: H3K27ac ChIP-seq on myofibers integrated with RNA-seq of mdx muscle; assay type: in vivo, mouse
Experimental: H3K27ac ChIP-seq on muscle myofibers. Freshly-isolated whole quadriceps muscles (both per mouse) were finely minced and digested in 10 ml/muscle of PBS supplemented with 1 mM CaCl2 and 100 U/ml collagenase II (Cat #17101, Life Technologies, Grand Island, N.Y.) at 37° C. for 1 hour with shaking. The suspension was then filtered through a 40 μm strainer (Cat #22363547, Fisher Scientific, Waltham, Mass.) and the unfiltered fraction (enriched in myofibers) was kept for further steps. Separation of mononuclear fraction in the filtered fraction was confirmed at the microscope. Myofibers were fixed in 10 ml 1% PFA for 30 minutes at room temperature with gentle nutation. Fixation was quenched 1 ml of 1.375M glycine (Cat #BP381-5, Fisher Scientific, Waltham, Mass.) with gentle nutation for 5 minutes at room temperature. After centrifugation at 3000 g for 5 minutes, myofibers were lysed in 1.4 ml lysis buffer with approximately 25 μl 2.3 mm zirconia/silica beads (Cat #11079125z, BioSpec, Bartlesville, Okla.). Lysis buffer consisted of 10 mM HEPES (pH 7.3; Cat #H3375), 10 mM KCl (Cat #P9541), 5 mM MgCl2 (Cat #M8266), 0.5 mM DTT (Cat #646563), 3 μg/ml cytochalasin B (C6762; all reagents from Sigma, St. Louis, Mo.); protease inhibitor cocktail (Cat #11852700, Roche, Mannheim, Germany)). Myofibers were them homogenized by means of Mini-BeadBeater-16 (Cat #607, Biospec, Bartlesville, Okla.) for 30 sec, then by rotating at 4° C. for 30 minutes. […] DNA was purified using the MinElute purification kit (cat #28004; Qiagen, Hilden, Germany), quantitated using Qubit reader and reagents. Library preparation and sequencing were conducted at the NU Genomics Core, using TrueSeq ChiP-seq library prep (with size exclusion) on 5 ng chromatin per ChIP sample or pooled input, and HiSeq 50 bp single-read sequencing (approximately 60 million read coverage per sample). […]

Which adipocyte hypertrophy (mdx mice; daily prednisone) does the source give for `C[C@]12C=CC(=O)C=C1CC[C@@H]1[C@@H]2C(=O)C[C@@]2(C)[C@H]1CC[C@]2(O)C(=O)CO` [prednisone, Prednisone] here?
The adipocyte hypertrophy was “induced adipocyte hypertrophy”.

And the “endpoint glucose and pyruvate tolerance tests” value (mdx mice; daily prednisone)?
Its value is “induced glucose intolerance and pyruvate intolerance”.

What about the glucose homeostasis (mdx mice; daily prednisone) of the same compound?
The glucose homeostasis was “impaired”.

What about the insulin resistance (mdx mice; daily prednisone) of the same compound?
Its insulin resistance is “induced insulin resistance”.

And the Glycemia (mdx mice; daily prednisone, over treatment)?
The Glycemia was “progressively increased”.

What about the “endpoint glucose tolerance test” value (mdx mice; weekly prednisone) of the same compound?
The value was “did not increase glucose intolerance”.

And the insulin sensitivity (mdx mice; weekly prednisone)?
The insulin sensitivity was “higher”.

What about the “Foxo3 and other muscle atrophy factors” value ([1]; daily prednisone) of the same compound?
Its value is “upregulation”.

And the “levels of Klf15 and Mef2C” value ([1]; daily prednisone)?
The value was “reduced”.

And the “H3K27ac marks and transcription of Klf15 and Mef2C” value ([1]; weekly prednisone)?
Its value is “increased”.

From patent US20220062299A1, “USE OF GLUCOCORTICOID STEROIDS IN PREVENTING AND TREATING CONDITIONS OF MUSCLE WASTING, AGING AND METABOLIC DISORDER” (NORTHWESTERN UNIVERSITY, priority 2018, published 2022)
